The text below walks through data of patent publication US20240391931A1 (Bristol-Myers Squibb Company, priority 2021, published 2024).

By IC50 is commonly meant the midpoint of a concentration-inhibition curve. A lower IC50 goes with inhibition by little substance. Broadly, the EC50 is the concentration needed to bring the measured effect to its halfway point. Read a high EC50 as a less potent agent.

Test [1] addresses T1, HER2 WT (Homo sapiens, UniProt P04626).
T1 construct: purchased ProQinase, Freiburg, Germany ERBB2 0108-0000-1
Briefly: Enzymatic assay HER2 WT (method a). It is filed as biochemical. Conditions: [HER2 WT]=12.5 nM, [ATP]=25 μM, [Peptide 22]=1 μM. The procedure: (§1) A 2× stock solution of HER2 WT (ERBB2 0108-0000-1; ProQinase, Freiburg, Germany) corresponding to method a, was prepared as described below. Alternatively, a 2× stock solution of HER2YVMA (custom purification; Viva biotech, Shanghai, China) corresponding to method b, was prepared as described below. For method c, a 2× stock of EGFR (ERBB1 PR7295B, Thermo Fisher, Carlsbad, CA) was prepared as described below. All 2× solutions were prepared in buffer containing 50 mM HEPES, pH 7.5, 10 mM MnCl2, MgCl2, 0.005% Tween 20, 1 mM TCEP. 25 ul of 2× enzyme solution was added to a Seahorse low volume 384-well polypropylene assay plate (201288-100, Seahorse Bioscience, Chicopee, MA) containing 1 μl of compound serially diluted in 50% DMSO. To initiate the reaction, 25 μl of solution containing 2× final concentration of ATP and ProfilerPro Peptide 22 (760366, Perkin Elmer Hopkinton, MA) was added to each well. The reactions were separated on an LC3000 (Caliper Life Sciences) or a LabChip EZReader (Perkin Elmer) in kinetic mode.
(§2) At the conclusion of each assay, the data were exported from the instrument as a .rda file (LC3000) and processed in proprietary software, EZReviewer, which determines the percent of substrate converted to product within a given cycle as (P/P+S)*100 by measuring the amplitude of substrate and product peaks. Cycle time varied with amount of compounds tested between 8 and 12 cycles. Initial velocity (0-3600 s) from each reaction was determined from the slope of a plot of percent conversion at each cycle versus time (seconds). Percent inhibition was determined by dividing the slope of each reaction by the uninhibited control using 100*(1-(x/uninhibited control)). IC50 estimates were obtained by plotting the concentration of inhibitor versus percent inhibition in GraphPad Prism (GraphPad Software, San Diego, CA) using log[inhibitor] versus Response (Variable Slope Model); Y=Min+((Max-Min)/(1+((IC50/x)^Hillslope)))
(§3) • a) [HER2 WT]=12.5 nM, [ATP]=25 μM, [Peptide 22]=1 μM (ATP KMapp˜25 μM) • b) [HER2YVMA]=5 nM, [ATP]=25 μM, [Peptide 22]=1 μM (ATP KMapp˜15 μM) • c) [EGFR WT]=2 nM, [ATP]=1 mM, [Peptide 22]=1 μM (ATP KMapp˜25 μM)

Test [2] addresses T2, EGFR WT (Homo sapiens, UniProt P00533).
T2 construct: purchased Thermo Fisher, Carlsbad, CA ERBB1 PR7295B
Briefly: Enzymatic assay EGFR WT (method c). Conditions: [EGFR WT]=2 nM, [ATP]=1 mM, [Peptide 22]=1 μM. In kind it is biochemical. The procedure: as §1, §2, §3

Test [3] has as its target T3, HER2 wildtype (WT) protein (Homo sapiens, UniProt P04626).
T3 construct: BT474 and N87 cell lines which endogenously overexpress the HER2 wildtype (WT) protein; endogenous in cells; host or cells: BT474, N87
Briefly: HER2 signaling (pHER2 Tyr1248/total HER2 MSD) in BT474 cells. It is filed as cell-based. Conditions: 1.5 hr compound, 1% FBS. How it is done: In addition to the engineered cell lines, the following cell lines were used: BT474 (human breast carcinoma), N87 (human gastric carcinoma), NCI-H1781 (human lung adenocarcinoma), and A431 (human epidermoid carcinoma); all cell lines were obtained from the American Type Culture Collection (ATCC, Manassas, VA). NCI-H1781 were grown in complete RPMI 1640 (Life Technologies, Carlsbad, CA) supplemented with 15% fetal bovine serum (FBS, Life Technologies, Carlsbad, CA) and 1% Penicillin-Streptomycin (P/S, Life Technologies, Carlsbad, CA). N87 cells were grown in complete RPMI 1640 supplemented with 10% FBS and 1% P/S. BT474 and A431 cells were grown in DMEM (Life Technologies, Carlsbad, CA) supplemented with 10% FBS and 1% P/S. All cells were maintained and propagated in a humidified 5% CO2 incubator at 37° C.
HER2 signaling was assessed in BT474 and N87 cell lines which endogenously overexpress the HER2 wildtype (WT) protein, in NCI-H1781 cells which endogenously expresses a HER2 mutant protein containing a VC insertion in the kinase domain (HER2VC or G776delinsVC), and in engineered cell lines transduced to express the Her2 mutant protein containing the YVMA insertion (Hek293-HER2YVMA and BEAS2B-HER2YVMA).
BT474, N87, and NCI-H1781 were plated in 96-well tissue-culture treated plates (Corning Costar, Sigma-Aldrich) in full media and incubated overnight. Hek293-HER2YVMA and BEAS2B-HER2YVMA cells were plated in 96-well poly-D-lysine treated plates (BD Bioscience, San Jose, CA). For treatment with test compounds, the media was replaced with corresponding low serum media (1% FBS) containing test compound at 1.1, 0.37, 0.12, 0.041, 0.014, 0.005, 0.0014, 0.0005 μM or DMSO control (0.1%). Cells were incubated with compound for 1.5 hr at 37° C. After compound treatment, the media was removed and cells were lysed for 30 min on ice in complete MSD lysis buffer (prepared using MSD base lysis buffer (Meso-Scale Discovery) supplemented with cOmplete, EDTA-free Protease inhibitor cocktail (Roche), Phosphatase Inhibitor Cocktails 2 and 3 (Sigma-Aldrich), and 1 mM PMSF (Sigma-Aldrich)). Lysates were stored at −70° C. until further analysis.
HER2 signaling was evaluated using phospho (Tyr1248)/total ErbB2 whole cell lysate MSD plates (Meso-Scale Discovery, Gaithersburg, MD). The phospho HER2 signal was normalized to total HER2 for each sample; results are reported as % DMSO control. The normalized data was fitted using a sigmoidal curve analysis program (Graph Pad Prism version 6) with variable Hill slope to determine EC50 values.
The HER2 signaling results are provided in Table 4, under columns titled “BT474-pHER2 EC50”, “N87-pHER2 EC50”, and “NCI-H1781-pHER2 EC50”. Hek293-HER2YVMA ins fall under the heading “HEKYVMA-pHER2 EC50”, Ba/F3 HER2YVMA fall under the heading “Ba/F3 YVMA-pHER2 EC50” and BEAS2B-HER2YVMA fall under the heading “BEAS2B YVMA-pHER2 EC50”.

The target in test [4] is HER2YVMA (Homo sapiens, UniProt P04626, INS775YVMA). Briefly: Enzymatic assay HER2YVMA (method b). It is filed as biochemical. Conditions: [HER2YVMA]=5 nM, [ATP]=25 μM, [Peptide 22]=1 μM. Also on record: purchased Viva biotech, Shanghai, China custom purification. How it is done: as §1, §2, §3

Where a name gives a salt, the structure may show the parent alone.

T2 sequence (P00533 25-1210): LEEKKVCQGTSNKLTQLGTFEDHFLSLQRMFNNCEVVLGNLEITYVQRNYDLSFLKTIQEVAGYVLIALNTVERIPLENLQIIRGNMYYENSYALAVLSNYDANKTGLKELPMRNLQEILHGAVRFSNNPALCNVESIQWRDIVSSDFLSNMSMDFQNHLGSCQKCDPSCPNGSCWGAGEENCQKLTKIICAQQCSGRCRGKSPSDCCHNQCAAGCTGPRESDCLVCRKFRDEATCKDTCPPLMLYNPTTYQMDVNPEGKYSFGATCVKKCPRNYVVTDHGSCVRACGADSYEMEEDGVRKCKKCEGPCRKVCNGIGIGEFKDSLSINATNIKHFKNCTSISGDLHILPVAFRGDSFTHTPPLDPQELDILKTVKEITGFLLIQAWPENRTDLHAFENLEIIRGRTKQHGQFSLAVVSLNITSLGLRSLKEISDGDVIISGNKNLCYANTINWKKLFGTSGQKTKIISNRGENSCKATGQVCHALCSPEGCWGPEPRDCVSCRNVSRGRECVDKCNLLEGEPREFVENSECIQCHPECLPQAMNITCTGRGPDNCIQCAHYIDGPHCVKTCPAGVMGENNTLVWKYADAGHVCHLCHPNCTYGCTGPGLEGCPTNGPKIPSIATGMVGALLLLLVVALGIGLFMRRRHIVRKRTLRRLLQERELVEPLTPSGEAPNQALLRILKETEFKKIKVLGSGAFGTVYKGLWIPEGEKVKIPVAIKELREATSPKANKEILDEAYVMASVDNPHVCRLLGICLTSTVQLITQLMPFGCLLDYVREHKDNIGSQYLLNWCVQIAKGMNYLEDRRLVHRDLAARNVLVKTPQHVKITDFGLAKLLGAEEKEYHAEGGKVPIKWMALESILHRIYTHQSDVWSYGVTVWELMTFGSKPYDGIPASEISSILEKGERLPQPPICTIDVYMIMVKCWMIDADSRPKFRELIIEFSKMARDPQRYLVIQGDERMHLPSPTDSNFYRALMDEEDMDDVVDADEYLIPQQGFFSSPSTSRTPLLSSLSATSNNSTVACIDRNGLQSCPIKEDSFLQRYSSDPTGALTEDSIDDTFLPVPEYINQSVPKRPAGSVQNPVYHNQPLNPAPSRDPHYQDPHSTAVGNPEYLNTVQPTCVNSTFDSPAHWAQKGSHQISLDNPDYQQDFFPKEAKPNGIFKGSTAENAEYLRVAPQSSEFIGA
Chain of HER2YVMA (P04626 with tags, fused parts or gaps INS775YVMA): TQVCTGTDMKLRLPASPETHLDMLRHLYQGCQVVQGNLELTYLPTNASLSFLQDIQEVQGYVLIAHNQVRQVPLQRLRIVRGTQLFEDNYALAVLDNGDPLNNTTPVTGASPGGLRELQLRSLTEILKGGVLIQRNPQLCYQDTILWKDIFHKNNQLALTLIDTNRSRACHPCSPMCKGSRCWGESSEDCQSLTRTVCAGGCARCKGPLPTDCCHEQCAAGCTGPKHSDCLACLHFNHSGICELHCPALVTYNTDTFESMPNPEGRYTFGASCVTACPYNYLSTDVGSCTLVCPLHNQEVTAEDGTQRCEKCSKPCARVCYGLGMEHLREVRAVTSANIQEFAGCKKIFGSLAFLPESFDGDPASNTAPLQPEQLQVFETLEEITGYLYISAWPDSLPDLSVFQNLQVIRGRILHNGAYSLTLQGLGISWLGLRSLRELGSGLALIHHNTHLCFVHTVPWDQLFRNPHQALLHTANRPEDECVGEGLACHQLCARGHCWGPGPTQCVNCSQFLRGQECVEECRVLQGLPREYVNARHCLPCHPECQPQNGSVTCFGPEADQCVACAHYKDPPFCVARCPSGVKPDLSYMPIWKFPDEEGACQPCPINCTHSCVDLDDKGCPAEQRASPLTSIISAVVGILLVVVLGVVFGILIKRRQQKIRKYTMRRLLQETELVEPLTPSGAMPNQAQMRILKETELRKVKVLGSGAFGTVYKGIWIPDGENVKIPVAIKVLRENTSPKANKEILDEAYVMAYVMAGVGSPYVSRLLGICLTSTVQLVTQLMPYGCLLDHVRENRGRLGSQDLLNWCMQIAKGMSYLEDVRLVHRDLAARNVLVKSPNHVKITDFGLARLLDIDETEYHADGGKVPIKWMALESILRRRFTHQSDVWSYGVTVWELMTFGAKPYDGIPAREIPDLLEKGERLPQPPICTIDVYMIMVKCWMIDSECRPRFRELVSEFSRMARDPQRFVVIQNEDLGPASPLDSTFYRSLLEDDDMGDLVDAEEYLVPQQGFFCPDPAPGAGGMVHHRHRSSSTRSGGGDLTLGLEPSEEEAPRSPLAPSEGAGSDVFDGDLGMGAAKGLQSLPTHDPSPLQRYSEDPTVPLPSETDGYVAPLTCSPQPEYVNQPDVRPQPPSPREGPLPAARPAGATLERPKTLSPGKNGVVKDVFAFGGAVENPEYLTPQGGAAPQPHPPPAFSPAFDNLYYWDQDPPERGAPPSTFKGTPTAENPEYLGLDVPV
T3 sequence (P04626 23-1255): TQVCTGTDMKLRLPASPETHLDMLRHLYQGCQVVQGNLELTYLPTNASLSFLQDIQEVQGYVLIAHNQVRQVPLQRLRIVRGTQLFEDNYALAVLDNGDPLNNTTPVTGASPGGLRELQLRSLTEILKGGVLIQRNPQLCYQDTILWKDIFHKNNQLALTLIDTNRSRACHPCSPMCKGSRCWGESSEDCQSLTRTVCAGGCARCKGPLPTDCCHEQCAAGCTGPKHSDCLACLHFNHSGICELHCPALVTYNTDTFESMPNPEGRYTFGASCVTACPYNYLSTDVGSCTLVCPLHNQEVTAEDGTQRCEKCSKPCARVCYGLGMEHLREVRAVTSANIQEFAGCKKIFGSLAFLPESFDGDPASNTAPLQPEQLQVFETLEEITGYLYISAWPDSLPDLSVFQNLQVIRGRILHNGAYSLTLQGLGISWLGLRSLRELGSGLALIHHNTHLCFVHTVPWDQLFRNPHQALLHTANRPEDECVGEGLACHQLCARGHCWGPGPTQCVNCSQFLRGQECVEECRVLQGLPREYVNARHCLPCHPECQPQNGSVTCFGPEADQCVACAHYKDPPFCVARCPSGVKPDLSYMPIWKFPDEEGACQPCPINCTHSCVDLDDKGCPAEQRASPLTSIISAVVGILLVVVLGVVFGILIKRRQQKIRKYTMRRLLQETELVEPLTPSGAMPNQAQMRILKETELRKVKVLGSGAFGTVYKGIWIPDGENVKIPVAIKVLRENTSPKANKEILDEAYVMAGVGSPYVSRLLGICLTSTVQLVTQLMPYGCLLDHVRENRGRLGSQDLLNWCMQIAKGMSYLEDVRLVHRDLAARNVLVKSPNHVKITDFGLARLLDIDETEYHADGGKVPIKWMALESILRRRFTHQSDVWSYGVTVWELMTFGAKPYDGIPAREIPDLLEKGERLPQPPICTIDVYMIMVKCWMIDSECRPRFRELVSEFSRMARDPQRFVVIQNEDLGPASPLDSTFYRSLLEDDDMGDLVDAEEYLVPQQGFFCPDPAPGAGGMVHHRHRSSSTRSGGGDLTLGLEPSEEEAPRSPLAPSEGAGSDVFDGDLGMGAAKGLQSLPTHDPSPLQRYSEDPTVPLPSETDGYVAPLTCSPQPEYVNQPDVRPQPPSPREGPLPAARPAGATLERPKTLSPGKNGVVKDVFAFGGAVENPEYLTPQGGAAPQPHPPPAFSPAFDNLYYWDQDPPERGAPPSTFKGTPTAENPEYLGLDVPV
T1 sequence (P04626 23-1255): as above

`Cc1ccc(Oc2ccc(Nc3ncnc4sc5c(c34)CN(C(=O)C=CCN(C)C)C5C)cc2C)cn1` (single isomer, unassigned) [Compound 169]: the IC50 is less than 100 nM in test [1], greater than 10000 nM in test [2] and less than 100 nM in test [4]. The same molecule had an EC50 in test [3] of less than 100 nM.

With `Cc1ccc(Oc2ccc(Nc3ncnc4sc5c(c34)CCN(C(=O)/C=C/CN3CC[C@H](CO)C3)C5)cc2C)cn1` [Compound 133], the IC50 was less than 100 nM in test [1], greater than 10000 nM in test [2] and less than 100 nM in test [4]. This molecule also showed a concentration giving a half-maximal response (EC50) in test [3] of less than 100 nM.

On to `Cc1ccc(Oc2ccc(Nc3ncnc4sc5c(c34)CCN(C(=O)/C=C/CN3CCCCC3(C)CO)C5)cc2C)cn1` (stereo not shown) [Compound 119], for which the figures for the IC50 in test [1], in test [2] and in test [4] were less than 100 nM, greater than 10000 nM and less than 100 nM, respectively. Besides, the EC50 in test [3] was less than 100 nM.

As for `COc1ccc(Oc2ccc(Nc3ncnc4sc5c(c34)CCN(C(=O)/C=C/CN3CC[C@@H](CO)C3)C5)cc2C)cn1` [Compound 143], the values for the IC50 in test [1], in test [2] and in test [4] were less than 100 nM, 1000 to 10000 nM and less than 100 nM, respectively. The same molecule gave a concentration for a half-maximal effect (EC50) in test [3] of less than 100 nM.

On to `Cc1ccc(Oc2ccc(Nc3ncnc4sc5c(c34)C(C)CN(C(=O)C=CCN(C)C(C)(C)C)C5)cc2C)cn1` (single isomer, unassigned) [Compound 179], for which the IC50 in test [1] is less than 100 nM; in test [2] it was greater than 10000 nM; in test [4] it was less than 100 nM. Further, the EC50 in test [3] was less than 100 nM.

For `COc1ccc(Oc2ccc(Nc3ncnc4sc5c(c34)C(C)CN(C(=O)/C=C/CN(C)C)C5)cc2C)cn1` (stereo not shown) [Compound 152, (E)-4-(dimethylamino)-1-(4-((4-((6-methoxypyridin-3-yl)oxy)-3-methylphenyl)amino)-5-methyl-5,8-dihydropyrido[4′,3′:4,5]thieno[2,3-d]pyrimidin-7(6H)-yl)but-2-en-1-one], the IC50 in test [1] was less than 100 nM; in test [2] it was greater than 10000 nM; in test [4], less than 100 nM. The EC50 in test [3] was less than 100 nM.

Turning to `Cc1ccc(Oc2ccc(Nc3ncnc4sc5c(c34)C[C@@H](C)N(C(=O)/C=C/CN(C)C)[C@H]5C)cc2C)cn1` (racemic) [Compound 149, (E)-1-(6,8-cis-dimethyl-4-((3-methyl-4-((6-methylpyridin-3-yl)oxy)phenyl)amino)-5,8-dihydropyrido[4′,3′:4,5]thieno[2,3-d]pyrimidin-7(6H)-yl)-4-(dimethylamino)but-2-en-1-one], the IC50 in test [1] was less than 100 nM; in test [2], greater than 10000 nM; in test [4], less than 100 nM. This molecule showed an EC50 in test [3] of less than 100 nM.

Take `Cc1ccc(Oc2ccc(Nc3ncnc4sc5c(c34)CCN(C(=O)/C=C/CN3CC[C@H](F)C3)C5)cc2C)cn1` [Compound 124]: the figures for the IC50 in test [1], in test [2] and in test [4] were less than 100 nM, greater than 10000 nM and less than 100 nM, respectively. In addition, the concentration for a half-maximal effect (EC50) in test [3] was less than 100 nM.

Consider `Cc1ccc(Oc2ccc(Nc3ncnc4sc5c(c34)C(C)N(C(=O)C=CCN(C)C)C5)cc2C)cn1` (single isomer, unassigned) [Compound 148], for which the IC50 in test [1] was 1000 to 10000 nM; in test [2] it was greater than 10000 nM; in test [4] it was 1000 to 10000 nM. Moreover, the EC50 in test [3] was 100 to 350 nM.

On to `Cc1ccc(Oc2ccc(Nc3ncnc4sc5c(c34)CCN(C(=O)/C=C/CN3CC4CC(C3)O4)C5)cc2C)cn1` [Compound 15], for which the IC50 in test [1] was less than 100 nM; in test [2], greater than 10000 nM; in test [4] it was 100 to 1000 nM. In test [3], this molecule had a concentration for a half-maximal effect (EC50) of less than 100 nM.

As to `Cc1ccc(Oc2ccc(Nc3ncnc4sc5c(c34)CCN(C(=O)/C=C/CN3CC4CCC3C4)C5)cc2C)cn1` (stereo not shown) [Compound 14], the IC50 is less than 100 nM in test [1], greater than 10000 nM in test [2] and less than 100 nM in test [4]. For the same molecule, the EC50 in test [3] was less than 100 nM.

`CCN(CC)C/C=C/C(=O)N1CCc2c(sc3ncnc(Nc4ccc(Oc5ccc(C)nc5)c(C)c4)c23)C1` [Compound 131]: the IC50 is less than 100 nM in test [1], 1000 to 10000 nM in test [2] and less than 100 nM in test [4]. This molecule registered an EC50 in test [3] of less than 100 nM.

`CCN(CC)C/C=C/C(=O)N1CCc2c(sc3ncnc(Nc4ccc(Oc5ccc(OC)nc5)c(C)c4)c23)C1` [Compound 137]: the concentration for half-maximal inhibition (IC50) in test [1] is less than 100 nM; in test [2], greater than 10000 nM; in test [4], less than 100 nM. The same molecule came in with an EC50 in test [3] of less than 100 nM.

Take `C=CC(=O)N1Cc2sc3ncnc(Nc4ccc(Oc5ccc(C)nc5)c(C)c4)c3c2C(C)C1` (single isomer, unassigned) [Compound 145]: the IC50 in test [1] was less than 100 nM; in test [2], greater than 10000 nM; in test [4], less than 100 nM. The same molecule registered an EC50 in test [3] of less than 100 nM.

For `Cc1ccc(Oc2ccc(Nc3ncnc4sc5c(c34)CCN(C(=O)/C=C/CN3CCC[C@H](n4cccn4)C3)C5)cc2C)cn1` [Compound 112], the IC50 is less than 100 nM in test [1], greater than 10000 nM in test [2] and less than 100 nM in test [4]. In test [3], this molecule displayed an EC50 of less than 100 nM.

As for `Cc1ccc(Oc2ccc(Nc3ncnc4sc5c(c34)CCN(C(=O)/C=C/CN3CCO[C@H](CO)C3)C5)cc2C)cn1` [Compound 136], the IC50 is less than 100 nM in test [1], greater than 10000 nM in test [2] and less than 100 nM in test [4]. The same molecule returned a half-maximal effective concentration (EC50) in test [3] of less than 100 nM.

As to `Cc1ccc(Oc2ccc(Nc3ncnc4sc5c(c34)CCN(C(=O)/C=C/CN3CC4CCC(C4)C3)C5)cc2C)cn1` [Compound 16, (E)-4-(3-azabicyclo[3.2.1]octan-3-yl)-1-(4-((3-methyl-4-((6-methylpyridin-3-yl)oxy)phenyl)amino)-5,8-dihydropyrido[4′,3′:4,5]thieno[2,3-d]pyrimidin-7(6H)-yl)but-2-en-1-one benzenesulfonate salt], the IC50 in test [1] and in test [4] was less than 100 nM throughout. Besides, in test [3], the EC50 is less than 100 nM.
